Data reported in PubChem BioAssay (NCI).
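Where inhibition never reached the appropriate level, the endpoint shown equals the highest concentration tested. Otherwise, values were interpolated linearly from a five-concentration, 48-hour dose response in 96-well plates. At the TGI there is no net growth.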

Key:
Assay in all cases: NCI-60 cell line screen, 48 h
SNB-19 CNS = tested on: SNB-19 CNS
MDA-N = tested on: MDA-N
BT-549 breast = tested on: BT-549 breast
SK-MEL-5 melanoma = tested on: SK-MEL-5 melanoma
U251 CNS = tested on: U251 CNS
CAKI-1 renal = tested on: CAKI-1 renal
OVCAR-4 ovarian = tested on: OVCAR-4 ovarian
MALME-3M melanoma = tested on: MALME-3M melanoma
HOP-92 NSCLC = tested on: HOP-92 NSCLC
HT29 colon = tested on: HT29 colon
HCT-15 colon = tested on: HCT-15 colon
HL-60(TB) leukemia = tested on: HL-60(TB) leukemia
COLO 205 colon = tested on: COLO 205 colon
OVCAR-5 ovarian = tested on: OVCAR-5 ovarian
MOLT-4 leukemia = tested on: MOLT-4 leukemia
MDA-MB-435 = tested on: MDA-MB-435
SF-268 CNS = tested on: SF-268 CNS
SW-620 colon = tested on: SW-620 colon
TK-10 renal = tested on: TK-10 renal
A498 renal = tested on: A498 renal
CCRF-CEM leukemia = tested on: CCRF-CEM leukemia
HCT-116 colon = tested on: HCT-116 colon
MDA-MB-231 breast = tested on: MDA-MB-231 breast
K-562 leukemia = tested on: K-562 leukemia
SF-539 CNS = tested on: SF-539 CNS
SK-MEL-28 melanoma = tested on: SK-MEL-28 melanoma
RPMI-8226 leukemia = tested on: RPMI-8226 leukemia
NCI/ADR-RES ovarian = tested on: NCI/ADR-RES ovarian
UACC-257 melanoma = tested on: UACC-257 melanoma
UACC-62 melanoma = tested on: UACC-62 melanoma
UO-31 renal = tested on: UO-31 renal
SR leukemia = tested on: SR leukemia
M14 melanoma = tested on: M14 melanoma
HCC-2998 colon = tested on: HCC-2998 colon
SK-MEL-2 melanoma = tested on: SK-MEL-2 melanoma
OVCAR-8 ovarian = tested on: OVCAR-8 ovarian
HS 578T breast = tested on: HS 578T breast
LOX IMVI melanoma = tested on: LOX IMVI melanoma
NCI-H23 lung = tested on: NCI-H23 lung
ACHN renal = tested on: ACHN renal
MCF7 breast = tested on: MCF7 breast
NCI-H522 lung = tested on: NCI-H522 lung
EKVX NSCLC = tested on: EKVX NSCLC
PC-3 prostate = tested on: PC-3 prostate
A549 NSCLC = tested on: A549 NSCLC
NCI-H460 lung = tested on: NCI-H460 lung
NCI-H226 lung = tested on: NCI-H226 lung
SN12C renal = tested on: SN12C renal
IGROV1 ovarian = tested on: IGROV1 ovarian
KM12 colon = tested on: KM12 colon
786-0 renal = tested on: 786-0 renal
SF-295 CNS = tested on: SF-295 CNS
HOP-62 NSCLC = tested on: HOP-62 NSCLC
OVCAR-3 ovarian = tested on: OVCAR-3 ovarian
SK-OV-3 ovarian = tested on: SK-OV-3 ovarian
DU-145 prostate = tested on: DU-145 prostate

CC(C)C1(Cl)CCC2C3(C)CCCC(C)(C(=O)O)C3CC(Cl)C2(Cl)C1Cl (stereo unspecified)
TGI (SNB-19 CNS): > 100 µM | TGI (MDA-N): > 100 µM | TGI (BT-549 breast): > 100 µM | TGI (SK-MEL-5 melanoma): 82.5 µM | TGI (U251 CNS): 62.5 µM | TGI (CAKI-1 renal): > 100 µM | TGI (OVCAR-4 ovarian): 84 µM | TGI (MALME-3M melanoma): > 100 µM | TGI (HOP-92 NSCLC): > 100 µM | TGI (HT29 colon): 50.4 µM | TGI (HCT-15 colon): > 100 µM | TGI (HL-60(TB) leukemia): 62.6 µM | TGI (COLO 205 colon): 37.2 µM | TGI (OVCAR-5 ovarian): 94.7 µM | TGI (MOLT-4 leukemia): > 100 µM | TGI (MDA-MB-435): 62.3 µM | TGI (SF-268 CNS): > 100 µM | TGI (SW-620 colon): > 100 µM | TGI (TK-10 renal): > 100 µM | TGI (A498 renal): > 100 µM | TGI (CCRF-CEM leukemia): > 100 µM | TGI (HCT-116 colon): > 100 µM | TGI (MDA-MB-231 breast): > 100 µM | TGI (K-562 leukemia): > 100 µM | TGI (SF-539 CNS): 46.5 µM | TGI (SK-MEL-28 melanoma): 72.1 µM | TGI (RPMI-8226 leukemia): 62.7 µM | TGI (NCI/ADR-RES ovarian): > 100 µM | TGI (UACC-257 melanoma): > 100 µM | TGI (UACC-62 melanoma): 84.4 µM | TGI (UO-31 renal): > 100 µM | TGI (SR leukemia): > 100 µM | TGI (M14 melanoma): > 100 µM | TGI (HCC-2998 colon): 81.9 µM | TGI (SK-MEL-2 melanoma): > 100 µM | TGI (OVCAR-8 ovarian): > 100 µM | TGI (HS 578T breast): > 100 µM | TGI (LOX IMVI melanoma): > 100 µM | TGI (NCI-H23 lung): > 100 µM | TGI (ACHN renal): > 100 µM | TGI (MCF7 breast): > 100 µM | TGI (NCI-H522 lung): > 100 µM | TGI (EKVX NSCLC): 91.3 µM | TGI (PC-3 prostate): > 100 µM | TGI (A549 NSCLC): > 100 µM | TGI (NCI-H460 lung): 75.2 µM | TGI (NCI-H226 lung): 78.6 µM | TGI (SN12C renal): > 100 µM | TGI (IGROV1 ovarian): > 100 µM | TGI (KM12 colon): 37.7 µM | TGI (786-0 renal): > 100 µM

CC1CC(NN)=Nc2ccccc2N1 (stereo unspecified)
TGI (SF-295 CNS): > 100 µM | TGI (SNB-19 CNS): > 100 µM | TGI (HOP-62 NSCLC): > 100 µM | TGI (MDA-N): > 100 µM | TGI (BT-549 breast): > 100 µM | TGI (SK-MEL-5 melanoma): > 100 µM | TGI (OVCAR-3 ovarian): > 100 µM | TGI (U251 CNS): > 100 µM | TGI (CAKI-1 renal): > 100 µM | TGI (OVCAR-4 ovarian): > 100 µM | TGI (MALME-3M melanoma): > 100 µM | TGI (HT29 colon): > 100 µM | TGI (HCT-15 colon): > 100 µM | TGI (HL-60(TB) leukemia): > 100 µM | TGI (COLO 205 colon): > 100 µM | TGI (OVCAR-5 ovarian): > 100 µM | TGI (MOLT-4 leukemia): > 100 µM | TGI (MDA-MB-435): > 100 µM | TGI (SF-268 CNS): > 100 µM | TGI (SW-620 colon): > 100 µM | TGI (TK-10 renal): > 100 µM | TGI (A498 renal): > 100 µM | TGI (CCRF-CEM leukemia): > 100 µM | TGI (HCT-116 colon): > 100 µM | TGI (MDA-MB-231 breast): > 100 µM | TGI (K-562 leukemia): > 100 µM | TGI (SK-MEL-28 melanoma): > 100 µM | TGI (RPMI-8226 leukemia): > 100 µM | TGI (NCI/ADR-RES ovarian): > 100 µM | TGI (UACC-257 melanoma): > 100 µM | TGI (UACC-62 melanoma): > 100 µM | TGI (UO-31 renal): > 100 µM | TGI (SK-OV-3 ovarian): > 100 µM | TGI (M14 melanoma): > 100 µM | TGI (SK-MEL-2 melanoma): > 100 µM | TGI (OVCAR-8 ovarian): > 100 µM | TGI (HS 578T breast): > 100 µM | TGI (DU-145 prostate): > 100 µM | TGI (NCI-H23 lung): > 100 µM | TGI (ACHN renal): > 100 µM | TGI (NCI-H522 lung): > 100 µM | TGI (EKVX NSCLC): > 100 µM | TGI (PC-3 prostate): > 100 µM | TGI (A549 NSCLC): > 100 µM | TGI (NCI-H460 lung): > 100 µM | TGI (NCI-H226 lung): > 100 µM | TGI (SN12C renal): > 100 µM | TGI (IGROV1 ovarian): > 100 µM | TGI (KM12 colon): > 100 µM | TGI (786-0 renal): > 100 µM
